Data from patent publication US9624161B2 (priority 2009, dated 2017).
Several values for one entry are separate records, joined by “and”; a condition that tells them apart may be missing. Identical values can stand only once.

What was measured:
[1] = tested on: men with metastatic castration resistant prostate cancer (mCRPC); assay: Study 6: secondary hormone therapy with Compound IV 125 mg, 250 mg or 500 mg in mCRPC/nmCRPC maintained on ADT; format: in vivo, human
From the text: Compound IV, is studied (Study 6) for the proposed indication secondary hormone therapy for metastatic castration resistant prostate cancer (mCRPC), for high risk non-metastatic castration resistant prostate cancer (nmCRPC) or advanced prostate cancer at high risk of progressing to CRPC, or any combination thereof.
The effect of Compound IV as secondary hormonal therapy that reduces serum PSA and serum free testosterone levels in men with metastatic castration resistant prostate cancer maintained on androgen deprivation therapy is studied. The study assesses the effects of Compound IV on serum PSA response and serum PSA progression in men with mCRPC on ADT with LHRH agonists, LHRH antagonists, or orchidectomy. This study also assesses the VTE risk of lower doses of Compound IV. Secondary endpoints include serum free testosterone levels, adrenal gland androgen precursor production (DHEA and DHEAS levels), progression free survival, and skeletal related events (SRE).
75 subjects with castration resistant prostate cancer patients with radiographic evidence of metastatic disease (T any-N any-M1) are enrolled in the study. These subjects have a median life expectancy of less than 20 months, i.e. more serious disease than the other subjects with advanced prostate cancer enrolled in the previous studies. All subjects have been previously treated with androgen deprivation therapy (ADT), have responded to the ADT and currently have a serum PSA >2 ng/mL or >2 ng/mL and representing a 25% increase above the nadir achieved on the ADT. Subjects are maintained on ADT throughout the study.
Each subject receives daily doses of 125 mg Compound IV, 250 mg Compound IV, or 500 mg Compound IV administered orally, until their serum PSA increases at least 25% and 2 ng/mL from the nadir at two successive serum PSA assessments after initiation of treatment with Compound IV.
Enrollment into this study is staggered by 1 cycle (30 days) such that the first 25 subjects are enrolled into the 125 mg Compound IV dose arm. These subjects are evaluated for incidence of venous thromboembolic events (VTE). When the last subject in the 125 mg Compound IV dose arm has completed 1 cycle of therapy (30 days) in this dose arm and there is an acceptable incidence rate of VTE in this dose arm at that time (less than 3), enrollment is commenced in the 250 mg Compound IV dose arm. These subjects are evaluated for the incidence of VTE. When all 25 subjects in the 250 mg Compound IV dose arm have completed 1 cycle of therapy (30 days) in this dose arm and there is an acceptable incidence rate of VTE in this dose arm at that time (less than 3), enrollment into the 500 mg Compound IV dose arm (25 subjects) is commenced.
125 mg Compound IV, 250 mg Compound IV, or 500 mg Compound IV will be administered daily to all subjects in the study until they have developed serum PSA progression (serum PSA has increased at least 25% and 2 ng/mL above the nadir at two successive sample times after initiation of treatment with Compound IV).
Assessments of serum total testosterone, serum free testosterone, serum SHGB and serum PSA concentrations are made on Days 15, 30, and every 30 days until their serum PSA has increased at least 25% and 2 ng/mL from the nadir at two successive sample times after initiation of treatment with Compound IV. Bone turnover markers are assessed at baseline (Day 1), Day 90, and End of Study.
The incidence and frequency of hot flashes is assessed at baseline (Day 1), Day 30, Day 60, Day 90 and End of Study.
The proportion of subjects with a 50% decline from baseline in serum PSA (confirmed by a second serum PSA assessment 30 days later) by Day 90 (with follow up confirmation by Day 120) […]

[2] = tested on: human peripheral blood lymphocytes; assay: Chromosomal aberrations in human peripheral blood lymphocytes in vitro; format: cell-based; details: concentrations up to 200 μM
From the text: Compound IV was well-tolerated by rats and dogs after single and repeated oral administration (up to 28 days).

[3] = 250 mg, 11 evaluable patients (FIG. 61)
[4] = Study 6, 125 mg, 20 evaluable patients
[5] = Study 6, 125 mg, 21 evaluable patients
[6] = Study 6, 125 mg, mCRPC on ADT, Day 90, N 20
[7] = Study 6, 125 mg, mCRPC on ADT, N 20
[8] = Study 6, 125 mg, patients with hot flashes at baseline
[9] = Study 6, 125 mg, patients with no hot flashes at baseline

O=C(c1ccc(O)c(F)c1)N(c1ccc(O)cc1)c1ccc(F)cc1 [Compound IV, 3-fluoro-N-(4-fluorophenyl)-4-hydroxy-N-(4-hydroxyphenyl)benzamide]
Deep vein thrombosis events (DVTs) ([1]; 125 mg): No deep vein thrombosis events (DVTs) have been reported | Evaluable patients with improvements in hot flash frequency or severity ([1]; 125 mg): 33% | Evaluable patients with reductions in CTX ([1]; 125 mg): 60% | Evaluable patients with reductions in bone specific alkaline phosphatase ([1]; 125 mg): 52% | Men that do not respond and have continually increasing PSA levels ([1]; 125 mg): 6 | Patients reporting a PSA decrease in response to therapy ([1]; 125 mg): 24 patients | Patients with maximum free T reductions greater than 50% from baseline ([1]; 125 mg): 24 of 30 | Patients with reductions in free T ([1]; 125 mg): 27 of 30 | SAEs or VTEs ([1]; 125 mg): no SAEs or VTEs | Subjects with decreased collagen C-telopeptide (CTX) ([1]; 125 mg): 69% | Subjects with ≧50% decrease in PSA level ([1]; 125 mg): 11% | Patients with free T >0.7 pg/ml (Day 1) that go to <0.7 pg/mL ([1]; 125 mg cohort): 22/25 | Patients with total T >20 ng/dL (Day 1) that do NOT go to <20 ng/dL ([1]; 125 mg cohort): 0/3 | Patients with total T >20 ng/dL (Day 1) that go to <20 ng/dL ([1]; 125 mg cohort): 3/3 | Patients with improvement in both frequency and severity of hot flashes ([1]; 125 mg, 18 evaluable patients): 22% | Patients with improvement of frequency or severity and stability of the other measurement ([1]; 125 mg, 18 evaluable patients): 11% | Patients with stability in frequency and severity of hot flashes ([1]; 125 mg, 18 evaluable patients): 50% | Patients with worsening of either frequency or severity of hot flashes ([1]; 125 mg, 18 evaluable patients): 17% | SHBG level relative to Day 0 in all treated men ([1]; 125 mg, at least 90 days, initial 15 patients): ≥ 150 % of Day 0 | Men with suboptimal castration (free T>0.7 pg/ml) that became optimally castrated ([1]; 125 mg, by day 90, initial 15 patients): 91% | Treated men with improvement and stability of bone turnover markers ([1]; 125 mg, initial group, 11 evaluable subjects): at least 73% | Patients with >45% decrease in PSA ([1]; 125 mg, prior to day 90, initial 15 patients): 4/15 and 4 | Subjects with any level of PSA decline ([1]; 250 mg): 85% | Subjects with decreased collagen C-telopeptide (CTX) ([1]; 250 mg): 81% | Subjects with ≧50% decrease in PSA level ([1]; 250 mg): 30% | Patients with free T >0.7 pg/ml (Day 1) that go to <0.7 pg/mL ([1]; 250 mg cohort): 9/10 | Patients with total T >20 ng/dL (Day 1) that do NOT go to <20 ng/dL ([1]; 250 mg cohort): 0/4 | Patients with total T >20 ng/dL (Day 1) that go to <20 ng/dL ([1]; 250 mg cohort): 4/4 | Reported drug related serious adverse events (SAE) ([1]; 250 mg daily): one | Subjects that reported adverse events (AE's) ([1]; 250 mg daily): seven | Median SHBG level ([1]; 250 mg daily, initial 20 patients, 90 days): 297 % of baseline | SAE possibly drug related ([1]; 250 mg daily, patient required hospitalization): Phlebothrombosis-Grade 3 | Patients stable in both hot flash measurements [1, 3]: 45% | Patients with improvement in both/either frequency and severity of hot flashes [1, 3]: 36% | Bone turnover (CTX) decreased (improved), share of subjects ([1]; Study 6, 125 mg cohort): 69% are decreased | SHBG, median (of baseline) ([1]; Study 6, 125 mg cohort): Median - 158% | PSA response: subjects with ≧50% decrease in PSA ([1]; Study 6, 125 mg cohort, 4/38): 4/38 ≧ 50% (11%) | Hot flashes improved, in men experiencing them on Day 1 ([1]; Study 6, 125 mg cohort, 7/24): 7/24 improved (29%) | Hot flashes stable, in men experiencing them on Day 1 ([1]; Study 6, 125 mg cohort, 12/24): 12/24 stable (50%) | CTx decreased, # of patients (%) [1, 4]: 12/20 (60%) | CTx increased, # of patients (%) [1, 4]: 5/20 (25%) | CTx unchanged, # of patients (%) [1, 4]: 3/20 (15%) | BSAP decreased, # of patients (%) [1, 5]: 11/21 (52%) | BSAP increased, # of patients (%) [1, 5]: 8/21 (38%) | BSAP unchanged, # of patients (%) [1, 5]: 2/21 (10%) | Adverse event frequency (%): Bone pain ([1]; Study 6, 125 mg, 34 subjects): 3 (9%) | Adverse event frequency (%): Gynecomastia (grade 2) ([1]; Study 6, 125 mg, 34 subjects): 4 (12%) | Adverse event frequency (%): Gynecomastia/breast tenderness (grade 1) ([1]; Study 6, 125 mg, 34 subjects): 4 (12%) | Adverse event frequency (%): Loss of appetite ([1]; Study 6, 125 mg, 34 subjects): 3 (9%) | Adverse event frequency (%): Nausea ([1]; Study 6, 125 mg, 34 subjects): 2 (6%) | Adverse event frequency: VTE ([1]; Study 6, 125 mg, 34 subjects): 0 | Free testosterone level, mean [1, 6]: 0.57 pg/mL | Free testosterone level, median [1, 6]: 0.45 pg/mL | Free testosterone, % change from baseline to Day 90, median [1, 7]: −57.14% | Free testosterone, change from baseline to Day 90, median [1, 7]: -0.50 pg/mL | Free testosterone, change from baseline to Day 90, mean ([1]; Study 6, 125 mg, mCRPC on ADT, N 20, P 0.0002): -0.74 pg/mL | Free testosterone, % change from baseline to Day 90, mean ([1]; Study 6, 125 mg, mCRPC on ADT, N 20, P 0.0035): −34.59% | Change in hot flashes (frequency, severity): (Better, Better), % of patients [1, 8]: 18.75% | Change in hot flashes (frequency, severity): (Better, Stable), % of patients [1, 8]: 18.75% | Change in hot flashes (frequency, severity): (Better, Worse), % of patients [1, 8]: 6.25% | Change in hot flashes (frequency, severity): (Stable, Stable), % of patients [1, 8]: 37.50% | Change in hot flashes (frequency, severity): (Stable, Worse), % of patients [1, 8]: 6.25% | Change in hot flashes (frequency, severity): (Worse, Worse), % of patients [1, 8]: 12.50% | Change in hot flashes (frequency, severity): (Stable, Stable), % of patients [1, 9]: 77.78% | Change in hot flashes (frequency, severity): (Worse, Worse), % of patients [1, 9]: 22.22% | SHBG, mean (of baseline) ([1]; Study 6, 250 mg cohort): Mean - 294% | SHBG, median (of baseline) ([1]; Study 6, 250 mg cohort): Median - 297% | Hot flashes improved, in men experiencing them on Day 1 ([1]; Study 6, 250 mg cohort, 4/11): 4/11 improved (36%) | Hot flashes stable, in men experiencing them on Day 1 ([1]; Study 6, 250 mg cohort, 5/11): 5/11 stable (45%) | PSA response: subjects with ≧50% decrease in PSA ([1]; Study 6, 250 mg cohort, 6/20, Day 90): 6/20 ≧ 50% (30%) | Bone turnover (CTX) decreased (improved), share of subjects ([1]; Study 6, 250 mg cohort, 13/16): 13/16 (81%) are | Reported adverse event: Bilateral Breast Tenderness, grade ([1]; Study 6, 250 mg daily): Grade 1 | Reported adverse event: Diarrhea, grade ([1]; Study 6, 250 mg daily): Grade 1 | Reported adverse event: Gynecomastia, grade ([1]; Study 6, 250 mg daily): Grade 2 | Reported adverse event: Nipple Pain, grade ([1]; Study 6, 250 mg daily): Grade 1 | Reported adverse event: Nipple Tenderness, grade ([1]; Study 6, 250 mg daily): Grade 1 | Reported adverse event: Sensitivity of Mammila, grade ([1]; Study 6, 250 mg daily): Grade 1 | Structural or numeric chromosomal aberrations [2]: did not induce
